# Values quoted from earlier work, collected in patent US5496703A, “Indirect immunoassay for dioxinlike compounds” (priority 1993, dated 1996).
# Where two headings read alike, the source gives them in different places.
# Tests used:
# Ah receptor = conditions: cited from earlier work
# AHH [1] = conditions: responsive C57BL/6J inbred mouse strain; cited from earlier work
# AHH [2] = conditions: nonresponsive DBA/2 inbred mouse strain; cited from earlier work
Structure (SMILES),binding affinity to Ah receptor (Ah receptor),AHH induction (AHH [1]),AHH induction (AHH [2])
c1ccc2c(c1)cc1ccc3cccc4ccc2c1c34 [benzo[a]pyrene],high affinity,–,–
Cc1ccc2cc3c(ccc4ccccc43)c3c2c1CC3 [3-methylcholanthrene],high affinity,capable of inducing AHH activity,not in the nonresponsive DBA/2 inbred mouse strain
